{
  "source": "ChEMBL document CHEMBL4507272",
  "about": "(2021)",
  "key": {"[1]": {"target": "5-hydroxytryptamine receptor 1A (Homo sapiens, UniProt P08908)", "sequence (P08908 whole entry)": "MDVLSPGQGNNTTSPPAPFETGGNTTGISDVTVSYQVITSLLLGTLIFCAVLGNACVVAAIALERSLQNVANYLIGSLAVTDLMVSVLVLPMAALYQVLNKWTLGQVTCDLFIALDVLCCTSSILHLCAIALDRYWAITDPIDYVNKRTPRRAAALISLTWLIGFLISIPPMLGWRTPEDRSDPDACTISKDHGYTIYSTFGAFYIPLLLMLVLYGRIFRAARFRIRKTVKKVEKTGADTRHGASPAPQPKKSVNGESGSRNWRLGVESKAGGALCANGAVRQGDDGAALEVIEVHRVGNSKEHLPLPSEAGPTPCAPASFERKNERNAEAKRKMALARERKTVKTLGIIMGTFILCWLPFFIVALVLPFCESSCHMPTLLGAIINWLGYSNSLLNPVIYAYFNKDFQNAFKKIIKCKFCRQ", "assay": "GPCRScan assay: inhibition of 5-HT1A", "design": "radioligand conc. used [nm] 0.5 – 1.0, parental cells stable CHO"}, "[2]": {"target": "Beta-1 adrenergic receptor (Homo sapiens, UniProt P08588)", "sequence (P08588 whole entry)": "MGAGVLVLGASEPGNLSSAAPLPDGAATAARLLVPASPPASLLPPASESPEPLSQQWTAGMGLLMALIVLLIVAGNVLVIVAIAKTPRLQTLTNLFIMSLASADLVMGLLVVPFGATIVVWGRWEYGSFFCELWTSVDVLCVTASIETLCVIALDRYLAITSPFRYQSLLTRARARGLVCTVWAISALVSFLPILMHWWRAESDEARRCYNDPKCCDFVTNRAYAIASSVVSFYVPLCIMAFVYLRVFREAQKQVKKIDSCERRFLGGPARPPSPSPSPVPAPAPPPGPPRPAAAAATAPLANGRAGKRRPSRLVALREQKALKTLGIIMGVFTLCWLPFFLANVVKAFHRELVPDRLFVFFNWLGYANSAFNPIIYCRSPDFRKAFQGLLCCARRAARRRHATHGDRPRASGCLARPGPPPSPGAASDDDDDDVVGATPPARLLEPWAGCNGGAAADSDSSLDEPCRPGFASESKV", "assay": "GPCRScan assay: inhibition of Beta1", "design": "radioligand conc. used [nm] 0.1 – 0.2, parental cells CHO Flp-In"}, "[3]": {"target": "Tyrosine-protein kinase ABL2 (Homo sapiens) (UniProt P42684)", "details": "Compound concentration 1000.0 nM"}, "[4]": {"target": "5'-AMP-activated protein kinase catalytic subunit alpha-1 (Homo sapiens) (UniProt Q13131)", "sequence (Q13131 whole entry, looked up)": "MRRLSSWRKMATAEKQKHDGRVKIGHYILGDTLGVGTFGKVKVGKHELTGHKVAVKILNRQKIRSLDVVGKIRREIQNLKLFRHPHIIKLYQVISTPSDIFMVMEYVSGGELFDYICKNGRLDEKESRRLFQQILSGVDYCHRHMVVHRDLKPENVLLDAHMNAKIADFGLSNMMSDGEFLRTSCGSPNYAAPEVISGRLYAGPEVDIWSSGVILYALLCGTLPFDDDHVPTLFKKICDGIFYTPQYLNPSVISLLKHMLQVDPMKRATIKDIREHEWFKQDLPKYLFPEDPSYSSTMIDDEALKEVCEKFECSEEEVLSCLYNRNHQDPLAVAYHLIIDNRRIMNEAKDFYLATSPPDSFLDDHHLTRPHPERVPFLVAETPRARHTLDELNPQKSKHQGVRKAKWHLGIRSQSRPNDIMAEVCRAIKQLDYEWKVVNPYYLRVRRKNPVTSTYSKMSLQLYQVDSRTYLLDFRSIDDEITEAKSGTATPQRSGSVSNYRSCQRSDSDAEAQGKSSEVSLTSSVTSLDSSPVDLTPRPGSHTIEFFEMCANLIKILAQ", "details": "Compound concentration 1000.0 nM"}, "[5]": {"target": "Tyrosine-protein kinase Blk (Homo sapiens) (UniProt P51451)", "details": "Compound concentration 1000.0 nM"}, "[6]": {"target": "Bone morphogenetic protein receptor type-1B (Homo sapiens) (UniProt O00238)", "sequence (O00238 whole entry)": "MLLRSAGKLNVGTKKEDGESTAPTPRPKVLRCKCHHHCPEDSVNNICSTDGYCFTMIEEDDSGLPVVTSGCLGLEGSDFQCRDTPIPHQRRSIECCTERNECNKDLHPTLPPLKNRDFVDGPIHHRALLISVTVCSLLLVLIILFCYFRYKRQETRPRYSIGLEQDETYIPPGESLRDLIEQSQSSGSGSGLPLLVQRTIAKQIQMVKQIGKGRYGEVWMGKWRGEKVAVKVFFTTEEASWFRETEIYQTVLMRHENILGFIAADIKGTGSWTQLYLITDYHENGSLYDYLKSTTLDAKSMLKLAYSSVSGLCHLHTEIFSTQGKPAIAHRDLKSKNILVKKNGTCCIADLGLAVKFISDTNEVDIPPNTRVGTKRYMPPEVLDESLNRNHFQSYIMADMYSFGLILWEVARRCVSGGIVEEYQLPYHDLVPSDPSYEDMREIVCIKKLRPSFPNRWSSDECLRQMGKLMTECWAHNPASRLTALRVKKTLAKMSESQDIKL", "details": "Compound concentration 1000.0 nM"}, "[7]": {"test_system": "Serine/threonine-protein kinase B-raf (Homo sapiens), P15056 [V600E]", "details": "Compound concentration 1000.0 nM"}, "[8]": {"target": "Cyclin-dependent kinase 5 (Homo sapiens) (UniProt Q00535)", "details": "Compound concentration 1000.0 nM"}, "[9]": {"target": "Serine/threonine-protein kinase Chk1 (Homo sapiens) (UniProt O14757)", "details": "Compound concentration 1000.0 nM"}, "[10]": {"target": "Dual specificity protein kinase CLK4 (Homo sapiens) (UniProt Q9HAZ1)", "details": "Compound concentration 1000.0 nM"}, "[11]": {"target": "Casein kinase II subunit alpha' (Homo sapiens) (UniProt P19784)", "details": "Compound concentration 1000.0 nM"}, "[12]": {"target": "Megakaryocyte-associated tyrosine-protein kinase (Homo sapiens) (UniProt P42679)", "sequence (P42679 whole entry)": "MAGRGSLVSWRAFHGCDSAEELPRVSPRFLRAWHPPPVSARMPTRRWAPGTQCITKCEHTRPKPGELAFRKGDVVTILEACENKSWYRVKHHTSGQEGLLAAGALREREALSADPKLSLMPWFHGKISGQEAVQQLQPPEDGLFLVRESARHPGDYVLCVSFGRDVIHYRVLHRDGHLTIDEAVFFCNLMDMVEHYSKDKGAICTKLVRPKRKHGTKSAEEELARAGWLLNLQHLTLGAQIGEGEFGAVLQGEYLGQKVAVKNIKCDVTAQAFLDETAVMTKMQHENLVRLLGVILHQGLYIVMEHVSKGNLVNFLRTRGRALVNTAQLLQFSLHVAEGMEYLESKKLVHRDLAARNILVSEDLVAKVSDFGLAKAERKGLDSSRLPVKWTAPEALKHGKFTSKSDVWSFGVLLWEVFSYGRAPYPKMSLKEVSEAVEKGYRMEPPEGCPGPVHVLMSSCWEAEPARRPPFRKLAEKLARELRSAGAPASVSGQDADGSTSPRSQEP", "details": "Compound concentration 1000.0 nM"}, "[13]": {"target": "Dual specificity tyrosine-phosphorylation-regulated kinase 1B (Homo sapiens) (UniProt Q9Y463)", "details": "Compound concentration 1000.0 nM"}, "[14]": {"test_system": "Epidermal growth factor receptor (Homo sapiens), P00533 [UNDEFINED MUTATION]", "sequence (P00533 whole entry, looked up, change not shown)": "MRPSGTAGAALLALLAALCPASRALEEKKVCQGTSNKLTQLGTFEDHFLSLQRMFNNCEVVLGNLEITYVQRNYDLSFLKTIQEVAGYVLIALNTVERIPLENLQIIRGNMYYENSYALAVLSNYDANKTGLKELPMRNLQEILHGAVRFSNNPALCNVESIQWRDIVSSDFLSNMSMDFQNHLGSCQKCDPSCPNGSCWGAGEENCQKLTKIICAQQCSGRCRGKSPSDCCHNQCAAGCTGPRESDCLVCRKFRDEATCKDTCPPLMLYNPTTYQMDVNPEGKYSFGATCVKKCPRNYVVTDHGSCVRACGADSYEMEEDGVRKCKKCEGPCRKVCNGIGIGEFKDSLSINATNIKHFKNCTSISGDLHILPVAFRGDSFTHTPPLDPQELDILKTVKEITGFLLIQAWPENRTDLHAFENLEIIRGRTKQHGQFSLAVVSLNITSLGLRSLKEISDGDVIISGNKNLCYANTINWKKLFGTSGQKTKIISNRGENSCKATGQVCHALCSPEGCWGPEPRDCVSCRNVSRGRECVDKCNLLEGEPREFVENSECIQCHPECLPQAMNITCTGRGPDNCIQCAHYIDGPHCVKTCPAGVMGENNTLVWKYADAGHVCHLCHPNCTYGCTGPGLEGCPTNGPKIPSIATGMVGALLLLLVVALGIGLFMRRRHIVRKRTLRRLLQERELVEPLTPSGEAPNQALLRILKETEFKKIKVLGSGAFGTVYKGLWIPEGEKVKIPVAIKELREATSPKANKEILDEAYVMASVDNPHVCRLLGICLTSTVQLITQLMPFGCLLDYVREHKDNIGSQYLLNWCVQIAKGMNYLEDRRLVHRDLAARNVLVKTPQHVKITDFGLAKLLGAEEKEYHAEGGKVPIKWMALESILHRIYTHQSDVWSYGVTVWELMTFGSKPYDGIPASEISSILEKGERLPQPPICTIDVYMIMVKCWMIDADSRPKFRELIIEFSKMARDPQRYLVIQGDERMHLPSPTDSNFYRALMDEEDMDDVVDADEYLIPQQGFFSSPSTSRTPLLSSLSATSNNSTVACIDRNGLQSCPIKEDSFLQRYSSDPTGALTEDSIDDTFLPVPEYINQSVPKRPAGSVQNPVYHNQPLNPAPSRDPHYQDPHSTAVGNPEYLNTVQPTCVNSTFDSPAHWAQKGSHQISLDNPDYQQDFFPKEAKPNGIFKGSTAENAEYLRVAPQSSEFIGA", "details": "Compound concentration 1000.0 nM"}, "[15]": {"test_system": "Epidermal growth factor receptor (Homo sapiens), P00533 [UNDEFINED MUTATION]", "details": "Compound concentration 1000.0 nM", "remark": "listed apart in the source"}, "[16]": {"target": "Receptor tyrosine-protein kinase erbB-3 (Homo sapiens) (UniProt P21860)", "details": "Compound concentration 1000.0 nM"}, "[17]": {"target": "Fibroblast growth factor receptor 3 (Homo sapiens) (UniProt P22607)", "details": "Compound concentration 1000.0 nM"}, "[18]": {"test_system": "Receptor-type tyrosine-protein kinase FLT3 (Homo sapiens), P36888 [UNDEFINED MUTATION]", "details": "Compound concentration 1000.0 nM"}, "[19]": {"target": "Receptor-type tyrosine-protein kinase FLT3 (Homo sapiens) (UniProt P36888)", "details": "Compound concentration 1000.0 nM"}, "[20]": {"target": "Interleukin-1 receptor-associated kinase 3 (Homo sapiens) (UniProt Q9Y616)", "details": "Compound concentration 1000.0 nM"}, "[21]": {"target": "Dual specificity mitogen-activated protein kinase kinase 1 (Homo sapiens) (UniProt Q02750)", "details": "Compound concentration 1000.0 nM"}, "[22]": {"test_system": "Hepatocyte growth factor receptor (Homo sapiens), P08581 [Y1235D]", "details": "Compound concentration 1000.0 nM"}, "[23]": {"target": "Serine/threonine-protein kinase 38 (Homo sapiens) (UniProt Q15208)", "details": "Compound concentration 1000.0 nM"}, "[24]": {"target": "Serine/threonine-protein kinase Nek2 (Homo sapiens) (UniProt P51955)", "details": "Compound concentration 1000.0 nM"}, "[25]": {"target": "Mitogen-activated protein kinase 11 (Homo sapiens) (UniProt Q15759)", "details": "Compound concentration 1000.0 nM"}, "[26]": {"target": "Serine/threonine-protein kinase PAK 6 (Homo sapiens) (UniProt Q9NQU5)", "details": "Compound concentration 1000.0 nM"}, "[27]": {"target": "Phosphorylase b kinase gamma catalytic chain, skeletal muscle/heart isoform (Homo sapiens) (UniProt Q16816)", "sequence (Q16816 whole entry, looked up, canonical isoform)": "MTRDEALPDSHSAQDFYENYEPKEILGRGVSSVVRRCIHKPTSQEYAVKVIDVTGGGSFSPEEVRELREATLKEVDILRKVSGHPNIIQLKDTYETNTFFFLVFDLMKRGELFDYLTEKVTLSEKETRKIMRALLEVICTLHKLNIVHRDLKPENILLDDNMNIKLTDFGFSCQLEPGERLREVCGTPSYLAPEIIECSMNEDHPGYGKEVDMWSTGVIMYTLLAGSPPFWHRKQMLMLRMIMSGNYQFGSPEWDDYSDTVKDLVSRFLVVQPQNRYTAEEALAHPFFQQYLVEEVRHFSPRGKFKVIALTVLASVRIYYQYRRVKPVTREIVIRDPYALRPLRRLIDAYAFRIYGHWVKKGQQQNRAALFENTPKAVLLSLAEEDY", "details": "Compound concentration 1000.0 nM"}, "[28]": {"test_system": "Phosphatidylinositol 4,5-bisphosphate 3-kinase catalytic subunit alpha isoform (Homo sapiens), P42336 [I800L]", "details": "Compound concentration 1000.0 nM"}, "[29]": {"target": "Phosphatidylinositol 5-phosphate 4-kinase type-2 beta (Homo sapiens) (UniProt P78356)", "details": "Compound concentration 1000.0 nM"}, "[30]": {"target": "Serine/threonine-protein kinase RIO1 (Homo sapiens) (UniProt Q9BRS2)", "details": "Compound concentration 1000.0 nM"}, "[31]": {"target": "Serine/threonine-protein kinase SIK1 (Homo sapiens) (UniProt P57059)", "details": "Compound concentration 1000.0 nM"}, "[32]": {"target": "NUAK family SNF1-like kinase 2 (Homo sapiens) (UniProt Q9H093)", "details": "Compound concentration 1000.0 nM"}, "[33]": {"target": "Proto-oncogene tyrosine-protein kinase Src (Homo sapiens) (UniProt P12931)", "details": "Compound concentration 1000.0 nM"}, "[34]": {"target": "TRAF2 and NCK-interacting protein kinase (Homo sapiens) (UniProt Q9UKE5)", "details": "Compound concentration 1000.0 nM"}, "[35]": {"target": "Serine/threonine-protein kinase TNNI3K (Homo sapiens) (UniProt Q59H18)", "details": "Compound concentration 1000.0 nM"}, "[36]": {"target": "Serine/threonine-protein kinase ULK2 (Homo sapiens) (UniProt Q8IYT8)", "details": "Compound concentration 1000.0 nM"}, "[37]": {"target": "Serine/threonine-protein kinase WNK1 (Homo sapiens) (UniProt Q9H4A3)", "details": "Compound concentration 1000.0 nM"}, "[38]": {"target": "5-hydroxytryptamine receptor 1B (Homo sapiens) (UniProt P28222)", "sequence (P28222 whole entry)": "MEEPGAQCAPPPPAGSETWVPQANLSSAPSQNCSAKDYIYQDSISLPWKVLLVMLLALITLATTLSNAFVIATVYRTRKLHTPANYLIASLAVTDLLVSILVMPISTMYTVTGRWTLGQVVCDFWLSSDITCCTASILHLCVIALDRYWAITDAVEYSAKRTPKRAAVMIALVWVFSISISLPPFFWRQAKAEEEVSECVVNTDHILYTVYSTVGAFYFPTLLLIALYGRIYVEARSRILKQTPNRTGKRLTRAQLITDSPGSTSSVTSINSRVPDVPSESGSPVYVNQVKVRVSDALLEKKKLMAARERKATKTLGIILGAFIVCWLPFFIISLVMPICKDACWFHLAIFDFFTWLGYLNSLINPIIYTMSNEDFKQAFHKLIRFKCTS", "details": "Compound concentration 10.0 uM"}, "[39]": {"target": "5-hydroxytryptamine receptor 2A (Homo sapiens) (UniProt P28223)", "sequence (P28223 whole entry)": "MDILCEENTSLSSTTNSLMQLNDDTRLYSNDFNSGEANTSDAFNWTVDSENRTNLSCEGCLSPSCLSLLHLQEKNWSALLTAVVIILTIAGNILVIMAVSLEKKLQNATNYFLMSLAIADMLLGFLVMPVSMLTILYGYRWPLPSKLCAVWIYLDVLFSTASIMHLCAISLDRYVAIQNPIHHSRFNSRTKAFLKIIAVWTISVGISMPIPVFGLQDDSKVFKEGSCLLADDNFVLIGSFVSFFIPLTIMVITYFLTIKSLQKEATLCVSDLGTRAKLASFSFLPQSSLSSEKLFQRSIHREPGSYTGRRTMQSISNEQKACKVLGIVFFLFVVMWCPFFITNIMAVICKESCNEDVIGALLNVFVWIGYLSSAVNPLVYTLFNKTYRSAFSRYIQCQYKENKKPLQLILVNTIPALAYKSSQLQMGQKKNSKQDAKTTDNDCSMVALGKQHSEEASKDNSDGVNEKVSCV", "details": "Compound concentration 10.0 uM"}, "[40]": {"target": "D(1B) dopamine receptor (Homo sapiens) (UniProt P21918)", "details": "Compound concentration 10.0 uM"}, "[41]": {"target": "GABA-A receptor; anion channel (Rattus norvegicus) (UniProt O09028+P15431+P18506+P18508+P19969+P20236+P23574+P23576+P28471+P28473+P30191+P62813+P63079+P63138+Q91ZM7+Q9ES14)", "details": "Compound concentration 10.0 uM"}, "[42]": {"target": "Histamine H4 receptor (Homo sapiens) (UniProt Q9H3N8)", "details": "Compound concentration 10.0 uM"}},
  "data": [
    {"compound": "CC(=O)C1=C(C)N(c2cccc(C(F)(F)F)c2)C(=O)N[C@@H]1c1ccc(C#N)nc1", "note": "[BAY-678]", "values": [
      {"measurement": "Ki", "setting": "[1]; read-out: Ki", "result": 4.98, "unit": "µM"},
      {"measurement": "Ki", "setting": "[1]; read-out: pKi (converted)", "result": 4.9, "unit": "µM"},
      {"measurement": "Ki", "setting": "[2]; read-out: Ki", "result": 5.45, "unit": "µM"},
      {"measurement": "Ki", "setting": "[2]; read-out: pKi (converted)", "result": 5.01, "unit": "µM"},
      {"measurement": "residual activity", "setting": "[3]", "result": 100, "unit": "%"},
      {"measurement": "residual activity", "setting": "[4]", "result": 85.4, "unit": "%"},
      {"measurement": "residual activity", "setting": "[5]", "result": 95.8, "unit": "%"},
      {"measurement": "residual activity", "setting": "[6]", "result": 74.2, "unit": "%"},
      {"measurement": "residual activity", "setting": "[7]", "result": 100, "unit": "%"},
      {"measurement": "residual activity", "setting": "[8]", "result": 100, "unit": "%"},
      {"measurement": "residual activity", "setting": "[9]", "result": 73.2, "unit": "%"},
      {"measurement": "residual activity", "setting": "[10]", "result": 88.3, "unit": "%"},
      {"measurement": "residual activity", "setting": "[11]", "result": 75.7, "unit": "%"},
      {"measurement": "residual activity", "setting": "[12]", "result": 100, "unit": "%"},
      {"measurement": "residual activity", "setting": "[13]", "result": 100, "unit": "%"},
      {"measurement": "residual activity", "setting": "[14]", "result": 80, "unit": "%"},
      {"measurement": "residual activity", "setting": "[15]", "result": 100, "unit": "%"},
      {"measurement": "residual activity", "setting": "[16]", "result": 100, "unit": "%"},
      {"measurement": "residual activity", "setting": "[17]", "result": 96.4, "unit": "%"},
      {"measurement": "residual activity", "setting": "[18]", "result": 61.2, "unit": "%"},
      {"measurement": "residual activity", "setting": "[19]", "result": 82.9, "unit": "%"},
      {"measurement": "residual activity", "setting": "[20]", "result": 100, "unit": "%"},
      {"measurement": "residual activity", "setting": "[21]", "result": 93.3, "unit": "%"},
      {"measurement": "residual activity", "setting": "[22]", "result": 100, "unit": "%"},
      {"measurement": "residual activity", "setting": "[23]", "result": 94.1, "unit": "%"},
      {"measurement": "residual activity", "setting": "[24]", "result": 100, "unit": "%"},
      {"measurement": "residual activity", "setting": "[25]", "result": 100, "unit": "%"},
      {"measurement": "residual activity", "setting": "[26]", "result": 92.7, "unit": "%"},
      {"measurement": "residual activity", "setting": "[27]", "result": 100, "unit": "%"},
      {"measurement": "residual activity", "setting": "[28]", "result": 75.4, "unit": "%"},
      {"measurement": "residual activity", "setting": "[29]", "result": 52.8, "unit": "%"},
      {"measurement": "residual activity", "setting": "[30]", "result": 87.5, "unit": "%"},
      {"measurement": "residual activity", "setting": "[31]", "result": 100, "unit": "%"},
      {"measurement": "residual activity", "setting": "[32]", "result": 100, "unit": "%"},
      {"measurement": "residual activity", "setting": "[33]", "result": 95.9, "unit": "%"},
      {"measurement": "residual activity", "setting": "[34]", "result": 90.8, "unit": "%"},
      {"measurement": "residual activity", "setting": "[35]", "result": 99.7, "unit": "%"},
      {"measurement": "residual activity", "setting": "[36]", "result": 100, "unit": "%"},
      {"measurement": "residual activity", "setting": "[37]", "result": 89, "unit": "%"},
      {"measurement": "inhibition", "setting": "[38]", "result": 6.69, "unit": "%"},
      {"measurement": "inhibition", "setting": "[39]", "result": -0.427, "unit": "%"},
      {"measurement": "inhibition", "setting": "[40]", "result": 0.739, "unit": "%"},
      {"measurement": "inhibition", "setting": "[41]", "result": 11.9, "unit": "%"},
      {"measurement": "inhibition", "setting": "[42]", "result": 25.9, "unit": "%"}
    ]}
  ]
}
